Data from paper PMC12298648, “An Evaluation of the Cytotoxicity and Safety Profile of Usnic Acid for a Broad Panel of Human Cancers and Normal Cells with Respect to Its Enantiospecificity” (Molecules, 2025).
≈ marks a conversion by molar mass, not a printed value. Like-named read-outs stand apart in the source and are kept apart here.

Columns and labels:
HCT116 = experiment: MTT viability assay, HCT116 colon cancer cells; assay type: cell-based, human; settings: for Cell viability: HCT116, 24 h; for IC50: Homo sapiens, HCT-116
From the text: (§1) Cell lines of different origins were used in the study and grouped as follows: prostate panel (human prostate carcinomas: DU145, derived from metastatic site: brain; grade IV PC3, derived from metastatic site: bone; LNCaP, derived from the metastatic site: lymph node; prostate epithelial, PNT2), colon panel (colorectal adenocarcinomas: HT29, originating from a primary tumor; Duke’s type C DLD-1, with the potential to lymph node metastasis; highly metastatic HCT116; colon epithelial cells CCD 841 CoN), thyroid panel (follicular thyroid carcinoma FTC133, anaplastic thyroid carcinoma 8505C, papillary thyroid carcinoma TPC-1, normal thyroid follicular epithelial Nthy-ori 3–1), breast panel (ER-positive breast adenocarcinoma MCF7, ER-negative breast adenocarcinoma MDA-MB-231, breast epithelial MCF10A), brain panel (neuroblastoma SH-SY5Y, glioblastoma U-87 MG, murine astrocytes C8D1A). All cell lines were purchased from Merck (Darmstadt, Germany).
(§2) Cells were grown under standard conditions (37 °C, 5% CO2) and culture media (DMEM/F12 for PNT2, PC3, FTC133, 8505 C, MDA-MB-231, TPC-1; DMEM Low Glucose for DU145; DMEM High Glucose for HCT116, DLD-1, SH-SY5Y, U87MG, C8D1A; MEM with NEAA for MCF7; MEM for CCD 841 CoN; McCoy’s for HT29; RPMI1640 with sodium pyruvate for LNCaP; DMEM/F12 with 20 ng/mL epidermal growth factor (EGF), 10 μg/mL insulin, 0.5 μg/mL hydrocortisone, 100 ng/mL cholera toxin) for MCF10A), supplemented with 10% fetal bovine serum (FBS) or 5% donor horse serum for MCF10A, and 1% antibiotics solution (10,000 U penicillin and 10 mg streptomycin/mL). The tested substances were prepared as 10 mg/mL stock solutions in DMSO and further diluted in the culture media to the working concentrations. Cells were treated with UA enantiomers at the concentration range of 0–50 µg/mL. The influence of DMSO on cell viability was also examined, with the final concentration […], and no toxic effect was noted.
(§3) The cells were seeded onto 96-well plates at a density of 1.5 × 10^4 cells/well. After 24 h UA enantiomers were added. Cell viability was determined after 24, 48, and 72 h by the MTT assay, as described previously. Doxorubicin was used as a reference cytostatic drug. All analyses were performed in triplicate; cell viability was expressed as % of control, untreated cells (mean ± SD), and IC50 values (concentration at which cell viability is inhibited by 50%), if possible.

HT29 = experiment: MTT viability assay, HT29 colon cancer cells; assay type: cell-based, human; settings: for Cell viability: HT29, 24 h; for IC50: Homo sapiens, HT-29
From the text: as §1, §2, §3

DU145 = experiment: MTT viability assay, DU145 prostate cancer cells; assay type: cell-based, human; settings: for Cell viability: DU145, 24 h; for IC50: Homo sapiens, DU-145
From the text: as §1, §2, §3
(§4) The selectivity index (SI) was calculated, if possible, by dividing the IC50 value obtained for non-cancerous cells line by the IC50 values obtained for appropriate cancer cell line, as described previously. […] The values above 3 indicate good selectivity.

8505C = experiment: MTT viability assay, 8505C anaplastic thyroid carcinoma cells; assay type: cell-based, human; settings: for Cell viability: 24 h; for IC50: Homo sapiens
From the text: as §1, §2, §3

FTC133 = experiment: MTT viability assay, FTC133 follicular thyroid carcinoma cells; assay type: cell-based, human; settings: for Cell viability: FTC-133, 24 h; for IC50: Homo sapiens, FTC-133
From the text: as §1, §2, §3, §4

Nthy ori 3-1 = experiment: MTT viability assay, normal thyroid follicular epithelial cells; assay type: cell-based, human; settings: for IC50: Homo sapiens; for Cell viability: Nthy ori 3-1, 24 h
From the text: as §1, §2, §3

MCF7 = experiment: MTT viability assay, MCF7 breast cancer cells; assay type: cell-based, human; settings: for IC50: Homo sapiens; for Cell viability: MCF7, 24 h
From the text: as §1, §2, §3, §4

MCF10A = experiment: MTT viability assay, normal breast epithelial cells; assay type: cell-based, human; settings: for IC50: Homo sapiens, MCF-10A, MCF10A normal cells; for Cell viability: MCF10A, 24 h
From the text: as §1, §2, §3

HT29 cells = settings: cited from earlier work
MCF7 cells = system: MCF7 cells; parameters: method as in not printed ('another' study); settings: MCF7, 72 h, ref not given ('another' study), cited from earlier work

CC(=O)C1=C(O)C=C2Oc3c(C(C)=O)c(O)c(C)c(O)c3[C@@]2(C)C1=O [UA(+), (+)-usnic acid]
Cell viability (HCT116; 2.5 µg/mL): 100.35 % of control
Cell viability (HCT116; 5 µg/mL): 103.97 % of control
Cell viability (HCT116; 10 µg/mL): 85.60 % of control
Cell viability (HCT116; 20 µg/mL): 71.99 % of control
Cell viability (HCT116; 30 µg/mL): 68.16 % of control
Cell viability (HCT116; 40 µg/mL): 67.02 % of control
Cell viability (HCT116; 50 µg/mL): 61.49 % of control
IC50 (HCT116; HCT116, 48 h): 26.4 µg/mL (≈ 76.7 µM)
IC50 (HCT116; HCT116, 72 h): 10.5 µg/mL (≈ 30.5 µM)
Cell viability (HT29; 2.5 µg/mL): 103.23 % of control
Cell viability (HT29; 5 µg/mL): 91.51 % of control
Cell viability (HT29; 10 µg/mL): 88.42 % of control
Cell viability (HT29; 20 µg/mL): 84.70 % of control
Cell viability (HT29; 30 µg/mL): 77.54 % of control
Cell viability (HT29; 40 µg/mL): 74.11 % of control
Cell viability (HT29; 50 µg/mL): 72.56 % of control
IC50 (HT29; HT29, 48 h): > 50 µg/mL
IC50 (HT29; HT29, 72 h): > 50 µg/mL
Cell viability (DU145; 2.5 µg/mL): 102.26 % of control
Cell viability (DU145; 5 µg/mL): 94.38 % of control
Cell viability (DU145; 10 µg/mL): 86.92 % of control
Cell viability (DU145; 20 µg/mL): 87.54 % of control
Cell viability (DU145; 30 µg/mL): 72.41 % of control
Cell viability (DU145; 40 µg/mL): 68.15 % of control
Cell viability (DU145; 50 µg/mL): 67.13 % of control
IC50 (DU145; DU145, 48 h): 11.5 µg/mL (≈ 33.4 µM)
IC50 (DU145; DU145, 72 h): 12.1 µg/mL (≈ 35.1 µM)
selectivity index (SI) (DU145; IC50 PNT2 / IC50 DU145, 48 h): 3.25
selectivity index (SI) (DU145; IC50 PNT2 / IC50 DU145, 48 h, listed as (+)-UA): exceeding 3
selectivity index (SI) (DU145; IC50 PNT2 / IC50 DU145, 72 h): 1.68
Cell viability (8505C; 2.5 µg/mL): 102.52 % of control
Cell viability (8505C; 5 µg/mL): 103.05 % of control
Cell viability (8505C; 10 µg/mL): 98.80 % of control
Cell viability (8505C; 20 µg/mL): 102.26 % of control
Cell viability (8505C; 30 µg/mL): 99.47 % of control
Cell viability (8505C; 40 µg/mL): 102.26 % of control
Cell viability (8505C; 50 µg/mL): 108.63 % of control
IC50 (8505C; 48 h): > 50 µg/mL
IC50 (8505C; 72 h): > 50 µg/mL
Cell viability (FTC133; 2.5 µg/mL): 92.33 % of control
Cell viability (FTC133; 5 µg/mL): 89.00 % of control
Cell viability (FTC133; 10 µg/mL): 89.83 % of control
Cell viability (FTC133; 20 µg/mL): 93.83 % of control
Cell viability (FTC133; 30 µg/mL): 74.75 % of control
Cell viability (FTC133; 40 µg/mL): 75.75 % of control
Cell viability (FTC133; 50 µg/mL): 78.08 % of control
IC50 (FTC133; FTC133, 48 h): > 50 µg/mL
IC50 (FTC133; FTC133, 72 h): 35.1 µg/mL (≈ 102 µM)
selectivity index (SI) (FTC133; IC50 Nthy ori 3-1 / IC50 FTC133, 72 h): 0.95
IC50 (Nthy ori 3-1; Nthy-ori 3-1, 48 h): > 50 µg/mL
IC50 (Nthy ori 3-1; Nthy-ori 3-1, 72 h): 33.2 µg/mL (≈ 96.4 µM)
Cell viability (Nthy ori 3-1; 2.5 µg/mL): 97.57 % of control
Cell viability (Nthy ori 3-1; 5 µg/mL): 100.56 % of control
Cell viability (Nthy ori 3-1; 10 µg/mL): 95.69 % of control
Cell viability (Nthy ori 3-1; 20 µg/mL): 93.96 % of control
Cell viability (Nthy ori 3-1; 30 µg/mL): 94.51 % of control
Cell viability (Nthy ori 3-1; 40 µg/mL): 97.29 % of control
Cell viability (Nthy ori 3-1; 50 µg/mL): 97.71 % of control
IC50 (MCF7; MCF7, 48 h): > 50 µg/mL
IC50 (MCF7; MCF7, 72 h): > 50 µg/mL
Cell viability (MCF7; 2.5 µg/mL): 106.54 % of control
Cell viability (MCF7; 5 µg/mL): 108.77 % of control
Cell viability (MCF7; 10 µg/mL): 108.15 % of control
Cell viability (MCF7; 20 µg/mL): 103.95 % of control
Cell viability (MCF7; 30 µg/mL): 89.38 % of control
Cell viability (MCF7; 40 µg/mL): 87.41 % of control
Cell viability (MCF7; 50 µg/mL): 87.78 % of control
selectivity index (SI) (MCF7; MCF7 cells, 72 h): ~3
IC50 (MCF10A; 48 h): > 50 µg/mL
IC50 (MCF10A; 72 h): 44.8 µg/mL (≈ 130 µM)
Cell viability (MCF10A; 2.5 µg/mL): 95.69 % of control
Cell viability (MCF10A; 5 µg/mL): 98.53 % of control
Cell viability (MCF10A; 10 µg/mL): 94.31 % of control
Cell viability (MCF10A; 20 µg/mL): 97.06 % of control
Cell viability (MCF10A; 30 µg/mL): 97.25 % of control
Cell viability (MCF10A; 40 µg/mL): 97.35 % of control
Cell viability (MCF10A; 50 µg/mL): 94.02 % of control
IC50 (HT29 cells; HT29, recalculated from µM by the authors, ref 21): 24.1 µg/mL
IC50 (HT29 cells; HT29, recalculated from µM by the authors, ref 22): 34.3 µg/mL
IC50 (HT29 cells; HT29, ref 21, read-out: IC50): 70 µM
IC50 (HT29 cells; HT29, ref 22, read-out: IC50): 99.7 µM
IC50 (MCF7 cells; recalculated from µM by the authors): 36.3 µg/mL
IC50 (MCF7 cells; read-out: IC50): 105 µM
